Experimental data reported in article PMC8160793, “Potent Antimicrobial and Antibiofilm Activities of Feleucin-K3 Analogs Modified by α-(4-Pentenyl)-Ala against Multidrug-Resistant Bacteria” (Biomolecules, 2021).
Like-named read-outs stand apart in the source and are kept apart here. Square brackets hold non-standard residues; d marks the D form. Ends that are not written are not given here. Peptide text beside a SMILES is read from it. ξ: configuration not given here. ξαMeGly(pent-4-enyl) = C=CCCCC(C)(N)C(=O)O

What was measured:
S. aureus ATCC 25923 = format: cell-based, Staphylococcus aureus
Experimental: (§1) The minimum inhibitory concentration (MIC) of the Feleucin-K3 analogs was tested by the broth microdilution method. Sensitive bacteria and drug-resistant bacteria were diluted to 1 × 10^6 CFU/mL, according to the McFarland standards. Bacterial suspension and peptide solutions (8–128 μg/mL) were incubated at 37 °C for 18 h. The minimum concentration without obvious bacterial growth was the MIC of the peptides. The stability of the analogs in a physiological salt environment was also investigated. In brief, salt powder (450-mM NaCl) was dissolved in deionized water, and the following investigational steps were the same as those described before. The above steps were repeated several times, until the same value was obtained three times.

A. baumannii ATCC 19606 = format: cell-based, Acinetobacter baumannii
Experimental: as §1

E. coli ATCC 25922 = format: cell-based
Experimental: as §1

P. aeruginosa ATCC 27853 = format: cell-based, Pseudomonas aeruginosa
Experimental: as §1

MRSA 51 = format: cell-based, Staphylococcus aureus; conditions: 51, 18 h
Experimental: as §1

MRSA 23 = format: cell-based, Staphylococcus aureus; conditions: 23, 18 h
Experimental: as §1

MRSA 113 = format: cell-based, Staphylococcus aureus; conditions: 113, 18 h
Experimental: as §1

MRSA 71 = format: cell-based, Staphylococcus aureus; conditions: 71, 18 h
Experimental: as §1

MRSA 48 = format: cell-based, Staphylococcus aureus; conditions: 48, 18 h
Experimental: as §1

MRSA 52 = format: cell-based, Staphylococcus aureus; conditions: 52, 18 h
Experimental: as §1

S. aureus 794 = format: cell-based, Staphylococcus aureus; conditions: 794, 18 h
Experimental: as §1

MRSA 54 = format: cell-based, Staphylococcus aureus; conditions: 54, 18 h
Experimental: as §1

MRSA 936 = format: cell-based, Staphylococcus aureus; conditions: 936, 18 h
Experimental: as §1

S. aureus 725 = format: cell-based, Staphylococcus aureus; conditions: 725, 18 h
Experimental: as §1

MRSA ATCC 33591 = format: cell-based, Staphylococcus aureus; conditions: ATCC 33591, 18 h
Experimental: as §1

MRSA 75 = format: cell-based, Staphylococcus aureus; conditions: 75, 18 h
Experimental: as §1

MRSA 74 = format: cell-based, Staphylococcus aureus; conditions: 74, 18 h
Experimental: as §1

A. baumannii 9896 = format: cell-based, Acinetobacter baumannii; conditions: 9896, 18 h
Experimental: as §1

A. baumannii 91199 = format: cell-based, Acinetobacter baumannii; conditions: 91199, 18 h
Experimental: as §1

A. baumannii 91810 = format: cell-based, Acinetobacter baumannii; conditions: 91810, 18 h
Experimental: as §1

A. baumannii 51243 = format: cell-based, Acinetobacter baumannii; conditions: 51243, 18 h
Experimental: as §1

A. baumannii 9234 = format: cell-based, Acinetobacter baumannii; conditions: 9234, 18 h
Experimental: as §1

A. baumannii 98110 = format: cell-based, Acinetobacter baumannii; conditions: 98110, 18 h
Experimental: as §1

A. baumannii 9336 = format: cell-based, Acinetobacter baumannii; conditions: 9336, 18 h
Experimental: as §1

A. baumannii 92359 = format: cell-based, Acinetobacter baumannii; conditions: 92359, 18 h
Experimental: as §1

A. baumannii 91869 = format: cell-based, Acinetobacter baumannii; conditions: 91869, 18 h
Experimental: as §1

A. baumannii 9840 = format: cell-based, Acinetobacter baumannii; conditions: 9840, 18 h
Experimental: as §1

A. baumannii 5444 = format: cell-based, Acinetobacter baumannii; conditions: 5444, 18 h
Experimental: as §1

A. baumannii 8309 = format: cell-based, Acinetobacter baumannii; conditions: 8309, 18 h
Experimental: as §1

A. baumannii 9236 = format: cell-based, Acinetobacter baumannii; conditions: 9236, 18 h
Experimental: as §1

A. baumannii 9331 = format: cell-based, Acinetobacter baumannii; conditions: 9331, 18 h
Experimental: as §1

A. baumannii 91944 = format: cell-based, Acinetobacter baumannii; conditions: 91944, 18 h
Experimental: as §1

A. baumannii 9828 = format: cell-based, Acinetobacter baumannii; conditions: 9828, 18 h
Experimental: as §1

A. baumannii 97830 = format: cell-based, Acinetobacter baumannii; conditions: 97830, 18 h
Experimental: as §1

A. baumannii 91152 = format: cell-based, Acinetobacter baumannii; conditions: 91152, 18 h
Experimental: as §1

A. baumannii 822144 = format: cell-based, Acinetobacter baumannii; conditions: 822144, 18 h
Experimental: as §1

A. baumannii 91105 = format: cell-based, Acinetobacter baumannii; conditions: 91105, 18 h
Experimental: as §1

[1] = broth microdilution, 1 × 10^6 CFU/mL, 37 °C, 18 h

C=CCCCC(C)(NC(=O)[C@H](CCCCN)NC(=O)[C@@H](N)CC(C)C)C(=O)N[C@@H](CC(C)C)C(=O)N[C@@H](CCCCN)C(=O)N[C@@H](CCCCN)C(=O)N[C@@H](CC(C)C)C(=O)N[C@@H](CC(C)C)C(N)=O (stereo partly drawn) [Feleucin-K64] (H-LK[ξαMeGly(pent-4-enyl)]LKKLL-NH2)
16 µg/mL: MIC, S. aureus ATCC 25923 (S. aureus ATCC 25923; ATCC 25923, 18 h) | MIC, E. coli ATCC 25922 (E. coli ATCC 25922; ATCC 25922, 18 h)
4 µg/mL: MIC, P. aeruginosa ATCC 27853 (P. aeruginosa ATCC 27853; ATCC 27853, 18 h)
64 µg/mL: MIC, A. baumannii ATCC 19606 (A. baumannii ATCC 19606; ATCC 19606, 18 h)

C=CCCCC(C)(NC(=O)[C@@H](N)Cc1ccccc1)C(=O)N[C@@H](CCCCN)C(=O)N[C@@H](CC(C)C)C(=O)N[C@@H](CC(C)C)C(=O)N[C@@H](CCCCN)C(=O)N[C@@H](CCCCN)C(=O)N[C@@H](CC(C)C)C(=O)N[C@@H](CC(C)C)C(N)=O (stereo partly drawn) [Feleucin-K67] (H-F[ξαMeGly(pent-4-enyl)]KLLKKLL-NH2)
8 µg/mL: MIC, S. aureus 794 (S. aureus 794) | MIC, A. baumannii 9331 (A. baumannii 9331) | MIC, E. coli ATCC 25922 (E. coli ATCC 25922; ATCC 25922, 18 h) | MIC, P. aeruginosa ATCC 27853 (P. aeruginosa ATCC 27853; ATCC 27853, 18 h)
4 µg/mL: MIC, MRSA 51 (MRSA 51) | MIC, MRSA 23 (MRSA 23) | MIC, MRSA 113 (MRSA 113) | MIC, MRSA 71 (MRSA 71) | MIC, MRSA 48 (MRSA 48) | MIC, MRSA 52 (MRSA 52) | MIC, MRSA 54 (MRSA 54) | MIC, MRSA 936 (MRSA 936) | MIC, S. aureus 725 (S. aureus 725) | MIC, MRSA ATCC 33591 (MRSA ATCC 33591) | MIC, MRSA 75 (MRSA 75) | MIC, MRSA 74 (MRSA 74) | MIC, S. aureus ATCC 25923 (S. aureus ATCC 25923; ATCC 25923, 18 h) | MIC, A. baumannii 9896 (A. baumannii 9896) | MIC, A. baumannii 91199 (A. baumannii 91199) | MIC, A. baumannii 91810 (A. baumannii 91810) | MIC, A. baumannii 51243 (A. baumannii 51243) | MIC, A. baumannii 9234 (A. baumannii 9234) | MIC, A. baumannii 98110 (A. baumannii 98110) | MIC, A. baumannii 9336 (A. baumannii 9336) | MIC, A. baumannii 92359 (A. baumannii 92359) | MIC, A. baumannii ATCC 19606 (A. baumannii ATCC 19606; ATCC 19606, 18 h) | MIC, A. baumannii 91869 (A. baumannii 91869) | MIC, A. baumannii 9840 (A. baumannii 9840) | MIC, A. baumannii 5444 (A. baumannii 5444) | MIC, A. baumannii 8309 (A. baumannii 8309) | MIC, A. baumannii 9236 (A. baumannii 9236) | MIC, A. baumannii 91944 (A. baumannii 91944) | MIC, A. baumannii 9828 (A. baumannii 9828) | MIC, A. baumannii 97830 (A. baumannii 97830) | MIC, A. baumannii 91152 (A. baumannii 91152) | MIC, A. baumannii 822144 (A. baumannii 822144) | MIC, A. baumannii 91105 (A. baumannii 91105)

GIGKFLHSAKKFGKAFVGEIMNS [Magainin 2, reference compound]
64 µg/mL: MIC, E. coli ATCC 25922 (E. coli ATCC 25922; [1])
256 µg/mL: MIC, P. aeruginosa ATCC 27853 (P. aeruginosa ATCC 27853; [1])
16 µg/mL: MIC, A. baumannii ATCC 19606 (A. baumannii ATCC 19606; [1])
> 256 µg/mL: MIC, S. aureus ATCC 25923 (S. aureus ATCC 25923; [1])
